According to patent US12344614B2, “Benzodiazepine derivatives as GABA a GAMMA1 PAM” (Hoffmann-La Roche Inc., priority 2021, dated 2025):

Legend:
[1] = molecular target: human GABAA α5β2γ1 receptor (Homo sapiens (Human), UniProt P31644+Q8N1C3); experiment: Radioligand binding assay, competition for [3H]RO7239181, membranes from HEK293F cells
Method: The affinity of compounds at GABAA γ1 subunit-containing receptors was measured by competition for [^3H]RO7239181 (67.3 Ci/mmol; Roche) binding to membranes from HEK293F cells (ThermoFisher R79007) expressing human (transiently transfected) receptors of composition α5β2γ1, α2β2γ1, α1β2γ1. For better protein expression of the α2 subunit-containing receptors, the 28 amino acid long signal peptide (Met1 to Ala28) of the human GABAA α2 subunit was substituted by the 31 amino acid long signal peptide (Met1 to Ser31) of human GABAA α5 subunit.
Harvested pellets from HEK293F cells expressing the different GABAA receptor subtypes were resuspended in Mannitol Buffer pH 7.2-7.4 (Mannitol 0.29M, Triethylamine 10 mM, Acetic acid 10 mM, EDTA 1 mM plus protease inhibitors (20 tablets Complete, Roche Diagnostics Cat. No. 05 056 489 001 per liter)), washed two times and then resuspended at 1:10 to 1:15 dilution in the same buffer. Cell disruption was performed by stirring the suspension in a Parr vessel #4637 at 435 psi for 15 minutes, and then the suspensions were centrifuged at 1000×g for 15 minutes at 4° C. (Beckman Avanti J-HC; rotor JS-4.2). The supernatant (S1) was transferred in a 21 Schott flask and the pellet (P1) was resuspended with Mannitol Buffer up to 175 ml. The resuspended pellet was transferred into a 250 ml Corning centrifugal beaker and centrifuged at 1500×g for 10 minutes at 4° C. (Beckman Avanti J-HC; rotor JS-4.2). The supernatant (S1) was then transferred in the 21 Schott flask and the pellet was discarded. The supernatants (S1) were centrifuged in 500 ml Beckman polypropylene centrifugal beaker at 15′000×g for 30 minutes at 4° C. (Beckman Avanti J-20 XP; rotor JLA-10.500). The pellet (P2) was resuspended with Mannitol Buffer 1:1 and frozen at −80° C. The supernatant (S2) was centrifuged in 100 ml Beckman polypropylene centrifugal tubes at 48000×g for 50 minutes at 4° C. (Beckman Avanti J-20 XP; rotor JA-18). The supernatant (S3) was discarded and the pellet (P3) was resuspended with 1:1 Mannitol Buffer. The P2 and P3 protein concentration was determined with the BIORAD Standard assay method with bovine serum albumin as standard and measured on the NANO-Drop 1000. The membrane suspension was aliquots (500 μl per tube) and stored at −80° C. until required.
Membrane homogenates were resuspended and polytronised (Polytron PT1200E Kinematica AG) in Potassium Phosphate 10 mM, KCl 100 mM binding buffer at pH 7.4 to a final assay concentration determined with a previous experiment.
Radioligand binding assays were carried out in a volume of 200 μL (96-well plates) which contained 100 μL of cell membranes, [^3H]RO7239181 at a concentration of 1.5 nM (α5β2γ1) or 20-30 nM (α1β2γ1, α2β2γ1) and the test compound in the range of [0.3-10000]×10^−9 M. Nonspecific binding was defined by 10×10^−6 (α5β2γ1) and 30×10^−6 M RO7239181 and typically represented less than 5% (α5β2γ1) and less than 20% (α1β2γ1, α2β2γ1) of the total binding. Assays were incubated to equilibrium for 1 hour at 4° C. and then, membranes were filtered onto unifilter (96-well white microplate with bonded GF/C filters preincubated 20-50 minutes in 0.3% Polyethylenimine) with a Filtermate 196 harvester (Packard BioScience) and washed 4 times with cold Potassium Phosphate 10 mM pH 7.4, KCl 100 mM binding buffer. After anhydrousing, filter-retained radioactivity was detected by liquid scintillation counting. Ki values were calculated using Excel-Fit (Microsoft) and are the means of two determinations.
Representative test results, obtained by the above described assay measuring binding affinity to HEK293 cells expressing human (h) receptors, are shown in the Table 1.

h-GABA-A α2β2γ1 receptor = h-GABA-A α2β2γ1 receptor (Homo sapiens (Human), UniProt P47869+Q8N1C3); experiment: Two-electrode voltage clamp electrophysiology in Xenopus oocytes expressing GABAA receptors; type: cell-based; conditions: for Efficacy (GABA) %: % modulation of GABA EC20 = 100*(Fold increase−1), compound at 30-fold Ki α2β2γ1; for Fold increase h-GABA-A α2β2γ1 oocyte @ 30-fold Ki: Xenopus oocytes, GABA EC20, test compound at approx. 30-fold its Ki α2β2γ1
Method: Xenopus laevis oocytes at maturation stages V-VI were used for the expression of cloned mRNA encoding GABAA receptor subunits. Oocytes ready for RNA micro-injection were bought from Ecocyte, Castrop-Rauxel, Germany and stored in modified Barth's medium (composition in mM: NaCl 88, KCl 1, NaHCO3 2.4, HEPES 10, MgSO4 0.82, CaNO3 0.33, CaCl2 0.33, pH=7.5) at 20° C. until the experiment.
Oocytes were plated in 96-well plates for microinjection using the Roboinject automated instrument (MultiChannelSystems, Reutlingen, Germany). Approximately 50 nL of an aqueous solution containing the RNA transcripts for the subunits of the desired GABAA receptor subtype was injected into each oocyte. […] Oocytes were kept in modified Barth's medium (composition in mM: NaCl 88, KCl 1, NaHCO3 4, HEPES 10, MgSO4 0.82, CaNO3 0.33, CaCl, 0.33, pH=7.5) at 20° C. until the experiment.
Electrophysiological experiments were performed using the Roboocyte instrument (MultiChannelSystems, Reutlingen, Germany) on days 3 to 5 after the micro-injection of mRNA. During the experiment the oocytes were constantly superfused by a solution containing (in mM) NaCl 90, KCl 1, HEPES 5, MgCl2 1, CaCl2 1 (pH 7.4). Oocytes were impaled by two glass microelectrodes (resistance: 0.5-0.8 MΩ) which were filled with a solution containing KCl 1M+K-acetate 1.5 M and voltage-clamped to −80 mV. The recordings were performed at room temperature using the Roboocyte two-electrode voltage clamp system (Multichannelsystem). After an initial equilibration period of 1.5 min GABA was added for 1.5 min at a concentration evoking approximately 20% of a maximal current response (EC2O). After another rest interval of 2.5 min GABA was again added evoking a response of similar amplitude and shape. […] Current traces were recorded at a digitization rate of 10 Hz during and shortly before and after the GABA application.
Each compound and concentration was tested on at least 3 oocytes. Different oocytes were used for different compound concentrations.
For the analysis, the digitized current traces of the first and second GABA response were superimposed and, if necessary, rescaled to equal maximal amplitudes. The ratio between the two responses during the time interval of test compound application was calculated point by point. The extremum of the resulting “ratio trace” was taken as the efficacy (“Fold increase”) of the compound expressed as “% modulation of GABA EC20” (100*(Fold increase−1)).

SMILES	Ki [1] [nM]	Efficacy (GABA) % (h-GABA-A α2β2γ1 receptor) [%]	Fold increase h-GABA-A α2β2γ1 oocyte @ 30-fold Ki (h-GABA-A α2β2γ1 receptor)
Cc1cnc2n1-c1ccc(C(F)(F)F)c(Cl)c1C(c1nc(O)ccc1F)=N[C@H]2C [Example 23, 6-[(4S)-7-chloro-1,4-dimethyl-8-(trifluoromethyl)-4H-imidazo[1,2-a][1,4]benzodiazepin-6-yl]-5-fluoro-pyridin-2-ol]	3.08	68	1.68
O=c1ccn2c(n1)CN=C(c1cc(O)ccc1F)c1c-2ccc(C(F)(F)F)c1Cl [Example 11, 8-chloro-7-(2-fluoro-5-hydroxy-phenyl)-9-(trifluoromethyl)-5H-pyrimido[1,2-a][1,4]benzodiazepin-3-one]	1.54	68	1.68
C[C@@H]1N=C(c2cc(O)ccc2F)c2c(ccc(Cl)c2Cl)-n2ccc(=O)nc21 [Example 5, (5S)-8,9-dichloro-7-(2-fluoro-5-hydroxy-phenyl)-5-methyl-5H-pyrimido[1,2-a][1,4]benzodiazepin-3-one]	0.39	46	1.46
Cc1nnc2n1-c1ccc(Cl)c(Cl)c1C(c1c(F)ccc(O)c1F)=NC2 [Example 13, 3-(7,8-dichloro-1-methyl-4H-[1,2,4]triazolo[4,3-a][1,4]benzodiazepin-6-yl)-2,4-difluoro-phenol]	0.4	72	1.72
Cc1cn2c(n1)[C@H](C)N=C(c1nc(O)ccc1F)c1c-2ccc(C(F)(F)F)c1Cl [Example 28, 6-[(4S)-7-chloro-2,4-dimethyl-8-(trifluoromethyl)-4H-imidazo[1,2-a][1,4]benzodiazepin-6-yl]-5-fluoro-pyridin-2-ol]	2.07	68	1.68
C[C@@H]1N=C(c2nc(O)ccc2F)c2c(ccc(C(F)(F)F)c2Cl)-n2c1nc1c2CCC1 [Example 24, 6-[(10S)-6-chloro-10-methyl-5-(trifluoromethyl)-1,9,12-triazatetracyclo[9.6.0.02,7.013,17]heptadeca-2(7),3,5,8,11,13(17)-hexaen-8-yl]-5-fluoro-pyridin-2-ol]	8.6	64	1.64
COC1CN(C(=O)c2nc3n(n2)-c2ccc(Cl)c(Cl)c2C(c2cc(O)ccc2F)=NC3)C1 [Example 7, [7,8-dichloro-6-(2-fluoro-5-hydroxy-phenyl)-4H-[1,2,4]triazolo[1,5-a][1,4]benzodiazepin-2-yl]-(3-methoxyazetidin-1-yl)methanone]	1.4	65	1.65
C[C@@H]1N=C(c2c(F)ccc(O)c2F)c2c(ccc(Cl)c2Cl)-n2ccc(=O)nc21 [Example 18, (5S)-8,9-dichloro-7-(2,6-difluoro-3-hydroxy-phenyl)-5-methyl-5H-pyrimido[1,2-a][1,4]benzodiazepin-3-one]	1.3	57	1.57
Cc1nnc2n1-c1ccc(C(F)(F)F)c(Cl)c1C(c1nc(O)ccc1Cl)=N[C@H]2C [Example 22, 5-chloro-6-[(4S)-7-chloro-1,4-dimethyl-8-(trifluoromethyl)-4H-[1,2,4]triazolo[4,3-a][1,4]benzodiazepin-6-yl]pyridin-2-ol]	20.9	84	1.84
COC1CN(C(=O)c2nc3n(n2)-c2ccc(C(F)(F)F)c(Cl)c2C(c2cc(O)ccc2F)=NC3)C1 [Example 16, [7-chloro-6-(2-fluoro-5-hydroxy-phenyl)-8-(trifluoromethyl)-4H-[1,2,4]triazolo[1,5-a][1,4]benzodiazepin-2-yl]-(3-methoxyazetidin-1-yl)methanone]	1.04	48	1.48
Cc1nnc2n1-c1ccc(C(F)(F)F)c(Cl)c1C(c1cc(O)ccc1F)=N[C@H]2C [Example 17, 4-fluoro-3-[(4S)-7-chloro-1,4-dimethyl-8-(trifluoromethyl)-4H-[1,2,4]triazolo[4,3-a][1,4]benzodiazepin-6-yl]phenol]	0.99	77	1.77
